In publication PMC3124361 (Journal of medicinal chemistry, 2011):
Converted amounts (≈) assume the structure as drawn. “And” between values parts separate entries of the source, which are not always exact repeats. Equal entries are not always repeated.

Legend:
[1] = Non-equilibrium solubility by nephelometry, pH 6.5; assay type: physicochemical; settings: for solubility: phosphate buffer
[2] = In vitro metabolism in human liver microsomes; assay type: in vitro ADME; settings: for microsomal CLint at 1 μM: microsomes, pH 7.4; for Eh Human: predicted hepatic extraction ratio
human albumin = human albumin (Homo sapiens, UniProt P02768); experiment: Protein binding estimated on human albumin column; assay type: in vitro ADME; settings: human albumin chromatographic method
[3] = Mouse systemic exposure after single oral dose; assay type: in vivo; settings: single oral dose 20 mg/kg, plasma
[4] = In vitro metabolism in mouse liver microsomes; assay type: in vitro ADME; settings: for microsomal CLint at 1 μM: microsomes, pH 7.4; for Eh Mouse: predicted hepatic extraction ratio
PfDHODH = biological target: T1, PfDHODH (Plasmodium falciparum, UniProt Q08210); experiment: PfDHODH DCIP dye-based enzyme assay; assay type: biochemical; settings: for IC50: IC50 PfDHODH
T1 sequence (Q08210 158-569 limits assumed): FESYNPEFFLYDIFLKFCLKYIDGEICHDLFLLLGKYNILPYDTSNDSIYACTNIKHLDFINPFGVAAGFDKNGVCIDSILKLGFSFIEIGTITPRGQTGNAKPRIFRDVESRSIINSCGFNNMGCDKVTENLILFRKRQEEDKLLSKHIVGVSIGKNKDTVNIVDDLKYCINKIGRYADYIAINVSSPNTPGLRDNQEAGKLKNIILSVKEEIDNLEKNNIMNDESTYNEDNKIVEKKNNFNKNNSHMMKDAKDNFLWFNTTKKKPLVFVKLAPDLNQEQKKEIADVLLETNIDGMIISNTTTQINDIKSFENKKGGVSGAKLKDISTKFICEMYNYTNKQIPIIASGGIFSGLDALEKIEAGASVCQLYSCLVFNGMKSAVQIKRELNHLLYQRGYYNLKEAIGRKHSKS

Sequence of human albumin (P02768 25-609): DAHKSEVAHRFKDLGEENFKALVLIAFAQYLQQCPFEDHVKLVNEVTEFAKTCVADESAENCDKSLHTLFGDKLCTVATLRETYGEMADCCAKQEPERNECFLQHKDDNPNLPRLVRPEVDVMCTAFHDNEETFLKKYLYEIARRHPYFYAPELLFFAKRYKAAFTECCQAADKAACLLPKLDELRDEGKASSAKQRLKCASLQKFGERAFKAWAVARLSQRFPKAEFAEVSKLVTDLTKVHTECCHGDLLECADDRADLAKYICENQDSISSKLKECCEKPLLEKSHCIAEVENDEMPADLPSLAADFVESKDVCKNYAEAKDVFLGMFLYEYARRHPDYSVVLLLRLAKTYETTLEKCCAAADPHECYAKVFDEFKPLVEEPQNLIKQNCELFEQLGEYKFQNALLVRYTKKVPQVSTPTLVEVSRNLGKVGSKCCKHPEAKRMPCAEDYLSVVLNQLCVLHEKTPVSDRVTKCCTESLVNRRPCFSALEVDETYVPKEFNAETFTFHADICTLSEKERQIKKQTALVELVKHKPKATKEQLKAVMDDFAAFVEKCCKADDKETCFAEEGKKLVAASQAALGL

IC50 (PfDHODH) [µM]	Structure (SMILES)	solubility [1] [µM]	Eh Human [2]	Human Plasma Binding (human albumin) [%]	other results
–	Cc1cc(NC2Cc3ccccc3C2)n2ncnc2n1 [Compound 45, N-(2,3-Dihydro-1H-inden-2-yl)-5-methyl-[1,2,4]triazolo[1,5-a]pyrimidin-7-amine]	188 to 376 (≈ 49.9 to 99.8 µg/mL)	< 0.2	76.1	aqueous solubility at pH 6.5 (in words) [1]: highly soluble; microsomal CLint at 1 μM [2]: < 10 µL/min/mg; Time above 1 μM [3]: <1 h; microsomal CLint at 1 μM [4]: > 25 µL/min/mg; Eh Mouse [4]: 0.59
> 100	Cc1cc(NC2CCCCCCC2)n2ncnc2n1 [Compound 43, N-Cyclooctyl-5-methyl-[1,2,4]triazolo[1,5-a]pyrimidin-7-amine]	–	–	–	–
–	Cc1cc(Nc2ccc(C(C)(C)C)cc2)n2ncnc2n1 [Compound 15, N-(4-tert-Butylphenyl)-5-methyl-[1,2,4]triazolo[1,5-a]pyrimidin-7-amine]	11 to 22 (≈ 3.09 to 6.19 µg/mL)	–	93.2	aqueous solubility at pH 6.5 (in words) [1]: poorly soluble; microsomal CLint at 1 μM [2]: > 30 µL/min/mg; IC50 (PfDHODH; stated in text): < 0.1 µM; microsomal CLint at 1 μM [4]: > 30 µL/min/mg
–	Cc1cc(NC2CCc3ccccc3C2)n2ncnc2n1 (stereo not shown) [Compound 49, 5-Methyl-N-(1,2,3,4-tetrahydronaphthalen-2-yl)-[1,2,4]triazolo[1,5-a]pyrimidin-7-amine]	–	< 0.2	–	aqueous solubility at pH 6.5 (in words) [1]: highly soluble; microsomal CLint at 1 μM [2]: < 10 µL/min/mg; microsomal CLint at 1 μM [4]: > 25 µL/min/mg; Eh Mouse [4]: 0.61
–	Cc1cc(NCCc2ccccc2)n2ncnc2n1 [Compound 56, 5-Methyl-N-phenethyl-[1,2,4]triazolo[1,5-a]pyrimidin-7-amine]	–	–	–	activity against PfDHODH (in words) (PfDHODH): mid-micromolar range activity
–	Cc1cc(Nc2ccc3sccc3c2)n2ncnc2n1 [Compound 36, N-(Benzo[b]thiophen-5yl)-5-methyl-[1,2,4]triazolo[1,5-a]pyrimidin-7-amine]	22 to 44 (≈ 6.19 to 12.4 µg/mL)	–	89.8	microsomal CLint at 1 μM [2]: > 30 µL/min/mg; IC50 (PfDHODH; stated in text): < 0.1 µM; Time above 1 μM [3]: <1 h; microsomal CLint at 1 μM [4]: > 30 µL/min/mg
–	CCCCc1ccc(Nc2cc(C)nc3ncnn23)cc1 [Compound 9, N-(4-Butylphenyl)-5-methyl-[1,2,4]triazolo[1,5-a]pyrimidin-7-amine]	11 to 22 (≈ 3.09 to 6.19 µg/mL)	0.67/ND	96.7	aqueous solubility at pH 6.5 (in words) [1]: poorly soluble
> 100	Cc1cc(Nc2ccc(N3CCOCC3)cc2)n2ncnc2n1 [Compound 25, N-(4-Morpholinophenyl)-5-methyl-[1,2,4]triazolo[1,5-a]pyrimidin-7-amine]	–	–	–	–
–	Cc1cc(NCCCc2ccccc2)n2ncnc2n1 [Compound 57]	–	–	–	activity against PfDHODH (in words) (PfDHODH): mid-micromolar range activity
> 100	Cc1cc(NC2CCCCC2)n2ncnc2n1 [Compound 41, N-Cyclohexyl-5-methyl-[1,2,4]triazolo[1,5-a]pyrimidin-7-amine]	–	–	–	–
> 100	Cc1cc(NC2CCCC2)n2ncnc2n1 [Compound 40, N-Cyclopentyl-5-methyl-[1,2,4]triazolo[1,5-a]pyrimidin-7-amine]	–	–	–	–
–	Cc1cc(Nc2ccc3c(c2)OCO3)n2ncnc2n1 [Compound 35, N-(Benzo[d][1,3]dioxol-5yl)-5-methyl-[1,2,4]triazolo[1,5-a]pyrimidin-7-amine]	186 to 372 (≈ 50.1 to 100 µg/mL)	0.37/ND	–	aqueous solubility at pH 6.5 (in words) [1]: highly soluble
–	FC(F)(F)c1ccc(Nc2cc(C(F)(F)F)nc3ncnn23)cc1 [Compound 60]	–	–	–	fold reduction in PfDHODH inhibitory activity versus 2 (PfDHODH; comparator 2): 4 fold
–	C=Cc1ccc(Nc2cc(C)nc3ncnn23)cc1 [Compound 17, N-(4-Vinylphenyl)-5-methyl-[1,2,4]triazolo[1,5-a]pyrimidin-7-amine]	25 to 50 (≈ 6.28 to 12.6 µg/mL)	0.64	84.4	Eh Mouse [4]: 0.88
> 50	CCCCCCCCc1ccc(Nc2cc(C)nc3ncnn23)cc1 [Compound 13, N-(4-Octylphenyl)-5-methyl-[1,2,4]triazolo[1,5-a]pyrimidin-7-amine]	–	–	–	–
–	Cc1cc(Nc2ccc(C3CC3)cc2)n2ncnc2n1 [Compound 16, N-(4-Cyclopropylphenyl)-5-methyl-[1,2,4]triazolo[1,5-a]pyrimidin-7-amine]	–	0.75	86.8	aqueous solubility at pH 6.5 (in words) [1]: highly soluble; Eh Mouse [4]: 0.93

IC50 (PfDHODH) [µM]	Structure (SMILES)	solubility [1] [µM]	Eh Human [2]	Human Plasma Binding (human albumin) [%]	other results
–	FC(F)(F)c1ccc(Nc2cc(Cl)nc3ncnn23)cc1 [Compound 61]	–	–	–	fold better activity (lower IC50) against PfDHODH than 2 (PfDHODH; comparator 2): 2 fold
–	CCc1cc(Nc2ccc(C(F)(F)F)cc2)n2ncnc2n1 [Compound 59, 5-Ethyl-N-(4-trifluoromethyl)phenyl-[1,2,4]triazolo[1,5-a]pyrimidin-7-amine]	–	–	–	fold reduction in PfDHODH inhibitory activity versus 2 (PfDHODH; comparator 2): 2 fold
–	Cc1cc(Nc2ccc3c(c2)CCC3)n2ncnc2n1 [Compound 34, N-(2,3-dihydro1H-inden-5-yl)-5-methyl-[1,2,4]triazolo[1,5-a]pyrimidin-7-amine]	47 to 94 (≈ 12.5 to 24.9 µg/mL)	0.81	92.5	Eh Mouse [4]: 0.94
–	Cc1cc(Nc2ccc(SC(F)(F)F)cc2)n2ncnc2n1 [Compound 20, 5-Methyl-N-(4-(trifuoromethylthio)phenyl)-[1,2,4]triazolo[1,5-a]pyrimidin-7-amine]	5 to 10 (≈ 1.63 to 3.25 µg/mL)	< 0.2	96.1	aqueous solubility at pH 6.5 (in words) [1]: poorly soluble; microsomal CLint at 1 μM [2]: < 10 µL/min/mg; microsomal CLint at 1 μM [4]: > 25 µL/min/mg; Eh Mouse [4]: 0.84
–	C#Cc1ccc(Nc2cc(C)nc3ncnn23)cc1 [Compound 18, N-(4-Ethynylphenyl)-5-methyl-[1,2,4]triazolo[1,5-a]pyrimidin-7-amine]	100 to 200 (≈ 24.9 to 49.9 µg/mL)	0.31	81.8	microsomal CLint at 1 μM [2]: < 10 µL/min/mg; microsomal CLint at 1 μM [4]: > 25 µL/min/mg; Eh Mouse [4]: 0.54
–	CCCc1ccc(Nc2cc(C)nc3ncnn23)cc1 [Compound 8, N-(4-Propylphenyl)-5-methyl-[1,2,4]triazolo[1,5-a]pyrimidin-7-amine]	187 to 374 (≈ 50 to 100 µg/mL)	0.66/ND	93.5	aqueous solubility at pH 6.5 (in words) [1]: highly soluble
> 50	Cc1cc(Nc2ccc(NC(C)(C)C)cc2)n2ncnc2n1 [Compound 26, N^1-tert-Butyl-N^4(5-methyl-[1,2,4]triazolo[1,5-a]pyrimidin-7-yl)benzene-1,4-diamine]	–	–	–	–
–	Cc1cc(Nc2ccc(C(C)C)cc2)n2ncnc2n1 [Compound 14, N-(4-Isopropylphenyl)-5-methyl-[1,2,4]triazolo[1,5-a]pyrimidin-7-amine]	47 to 94 (≈ 12.6 to 25.1 µg/mL)	0.64	91.3	Time above 1 μM [3]: <1 h; Eh Mouse [4]: 0.91
> 100	Cc1cc(NC2CCC2)n2ncnc2n1 [Compound 39, N-Cyclobutyl-5-methyl-[1,2,4]triazolo[1,5-a]pyrimidin-7-amine]	–	–	–	–
–	Cc1cc(Nc2ccc(N(C)C)cc2)n2ncnc2n1 [Compound 23, N^1,N^1-Dimethyl-N^4-(5-methyl-[1,2,4]triazolo[1,5-a]pyrimidin-7-yl)benzene-1,4-diamine]	93 to 186 (≈ 25 to 49.9 µg/mL)	0.4	–	fold less potent / increase of PfDHODH IC50 over 14 (PfDHODH; comparator 14): 4 fold; Eh Mouse [4]: 0.91
> 100	Cc1cc(NC2CCCCCC2)n2ncnc2n1 [Compound 42, N-Cycloheptyl-5-methyl-[1,2,4]triazolo[1,5-a]pyrimidin-7-amine]	–	–	–	–
> 100	Cc1cc(NC2CC2)n2ncnc2n1 [Compound 38, N-Cyclopropyl-5-methyl-[1,2,4]triazolo[1,5-a]pyrimidin-7-amine]	–	–	–	–
> 100	Cc1cc(NCc2ccccc2)n2ncnc2n1 [Compound 53]	–	–	–	–
–	CCc1ccc(Nc2cc(C)nc3ncnn23)cc1 [Compound 7, N-(4-Ethylphenyl)-5-methyl-[1,2,4]triazolo[1,5-a]pyrimidin-7-amine]	25 to 50 (≈ 6.33 to 12.7 µg/mL)	0.77/ND	88.0	–
–	Cc1cc(Nc2ccc(Cl)c(F)c2)n2ncnc2n1 [Compound 30, N-(4-Chloro-3-fluorophenyl)-5-methyl-[1,2,4]triazolo[1,5-a]pyrimidin-7-amine]	–	–	–	fold decrease in PfDHODH IC50 over the 4-Cl alone (PfDHODH; comparator 4-Cl-Ph (DSM89)): 3 fold

Structure (SMILES)	IC50 (PfDHODH) [µM]	solubility [1] [µM]	Eh Human [2]	Human Plasma Binding (human albumin) [%]	other results
Cc1cc(NCc2ccc(F)cc2)n2ncnc2n1 [Compound 54]	> 100	–	–	–	activity against PfDHODH (in words) (PfDHODH): inactive
Cc1cc(NCc2ccc(C(F)(F)F)cc2)n2ncnc2n1 [Compound 55]	> 100	–	–	–	activity against PfDHODH (in words) (PfDHODH): inactive
Cc1cc(NOc2ccccc2)n2ncnc2n1 [Compound 52, N-(5-Methyl-[1,2,4]triazolo[1,5-a]pyrimidin-7-yl)-O-phenylhydroxylamine]	> 100	–	–	–	activity against PfDHODH (in words) (PfDHODH): inactive
CCCc1c(C)nc2ncnn2c1Nc1ccc(C)cc1 [Compound 64]	> 100	–	–	–	activity against PfDHODH (in words) (PfDHODH): complete loss in activity
Cc1cc(Nc2ccc3c(c2)CCCC3)n2ncnc2n1 [Compound 33, 5-methyl-N-(5,6,7,8-tetrahydronaphthalen-2yl)-[1,2,4]triazolo[1,5-a]pyrimidin-7-amine]	0.035	89 to 179 (≈ 24.9 to 50 µg/mL)	–	95.5	microsomal CLint at 1 μM [2]: > 30 µL/min/mg; IC50 (PfDHODH; stated in text): < 0.1 µM and ~0.03 µM; microsomal CLint at 1 μM [4]: > 30 µL/min/mg
